Measurements as given in patent US20250215029A1 (Recludix Pharma, Inc., priority 2022, published 2025).
Like-named read-outs stand apart in the source and are kept apart here.

Tests used:
[1] = molecular target: T1, Recombinant STAT3 protein (STAT3 (G127-I722)) (Homo sapiens, UniProt P40763); test: STAT3 Fluorescence Polarization (FP) Assay; assay type: binding; conditions: probe 5-FAM-GpYLPQTV-NH2 2 nM, 45-minute incubation
T1 construct: Recombinant STAT3 protein (STAT3 (G127-I722))
Outline: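 Displacement of a 2 nM 5-FAM-labelled pY peptide (GpYLPQTV) from 25 nM recombinant STAT3 (G127-I722) was monitored by fluorescence polarization. Incubation lasted 45 min at room temperature in pH 7.4 HEPES buffer containing 1% DMSO.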

[2] = molecular target: T2, Recombinant STAT6 protein (STAT6 (W123-T658)) (Homo sapiens, UniProt P42226); test: STAT6 Fluorescence Polarization (FP) Assay; assay type: binding; conditions: probe 5-FAM-Ap[…]-NH2 2 nM, 45-minute incubation
T2 construct: Recombinant STAT6 protein (STAT6 (W123-T658))
T2 sequence (P42226 123-658): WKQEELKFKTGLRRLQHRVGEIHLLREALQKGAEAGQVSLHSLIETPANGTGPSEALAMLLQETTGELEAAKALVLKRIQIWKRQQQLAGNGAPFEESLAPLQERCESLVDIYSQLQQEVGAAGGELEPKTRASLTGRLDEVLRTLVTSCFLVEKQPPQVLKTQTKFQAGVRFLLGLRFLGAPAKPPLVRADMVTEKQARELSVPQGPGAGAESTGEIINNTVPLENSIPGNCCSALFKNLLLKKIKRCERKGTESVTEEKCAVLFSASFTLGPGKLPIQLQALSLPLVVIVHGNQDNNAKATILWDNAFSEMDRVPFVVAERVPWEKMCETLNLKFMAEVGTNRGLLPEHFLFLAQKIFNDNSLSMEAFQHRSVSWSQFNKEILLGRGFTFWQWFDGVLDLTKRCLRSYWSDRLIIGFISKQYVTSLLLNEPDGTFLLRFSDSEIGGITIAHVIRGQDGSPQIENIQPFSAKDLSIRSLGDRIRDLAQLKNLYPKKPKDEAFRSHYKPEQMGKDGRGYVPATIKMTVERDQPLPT
Outline: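 Probe displacement format: serially diluted compounds incubated 45 min at room temperature with 2 nM fluorescent phosphopeptide and 250 nM STAT6 (W123-T658) in pH 7.4 HEPES buffer, 1% DMSO final. Polarization signal plotted against log concentration, IC50 fitted by nonlinear regression.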

[3] = STAT3 25 nM, read-out: STAT3 (FP assay IC50)
[4] = STAT6 250 nM, read-out: STAT6 (FP assay IC50)
[5] = STAT3 (G127-I722) 25 nM, read-out: STAT3 (FP assay IC50 class)
[6] = STAT6 (W123-T658) 250 nM, read-out: STAT6 (FP assay IC50 class)

T1 sequence (P40763 127-722): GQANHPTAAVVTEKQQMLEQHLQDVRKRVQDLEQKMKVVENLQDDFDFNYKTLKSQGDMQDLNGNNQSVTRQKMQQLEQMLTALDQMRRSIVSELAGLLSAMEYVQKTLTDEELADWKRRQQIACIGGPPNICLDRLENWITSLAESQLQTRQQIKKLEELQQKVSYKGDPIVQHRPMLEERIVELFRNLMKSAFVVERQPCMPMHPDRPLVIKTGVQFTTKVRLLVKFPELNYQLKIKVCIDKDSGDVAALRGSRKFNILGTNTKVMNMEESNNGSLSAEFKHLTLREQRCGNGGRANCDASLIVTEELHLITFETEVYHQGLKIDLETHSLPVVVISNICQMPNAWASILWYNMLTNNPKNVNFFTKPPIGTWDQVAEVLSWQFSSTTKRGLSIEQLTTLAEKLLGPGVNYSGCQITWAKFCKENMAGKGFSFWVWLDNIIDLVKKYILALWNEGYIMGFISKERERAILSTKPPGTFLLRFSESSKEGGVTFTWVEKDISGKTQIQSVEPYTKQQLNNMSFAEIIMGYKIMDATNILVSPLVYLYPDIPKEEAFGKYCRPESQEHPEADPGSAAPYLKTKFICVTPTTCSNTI

Row | IC50 [1, 3] [nM] | IC50 [2, 4] [nM] | IC50 [1, 5] [nM] | IC50 [2, 6] [nM] | SMILES
1 | 100 to 1000 | 3000 to 30000 |  |  | O=C(N[C@H]1C[C@@H](OCc2ccccc2)CC[C@H]2CC[C@@H](C(=O)N3CC(C(=O)N4CCOCC4)C3)N2C1=O)c1cc2cc(C(F)(F)P(=O)(O)O)ccc2s1 [Compound 8, ((2-(((3S,6S,8S,10aR)-8-(benzyloxy)-3-(3-(morpholine-4-carbonyl)azetidine-1-carbonyl)-5-oxodecahydropyrrolo [1,2-a]azocin-6-yl)carbamoyl)benzo [b]thiophen-5-yl)difluoromethyl) phosphonic acid]
2 |  |  | 100 to 1000 | 300 to 3000 | Cn1cnc2cc(CNC(=O)[C@@H]3CC[C@@H]4CCC[C@H](NC(=O)c5cc6cc(C(F)(F)P(=O)(O)O)ccc6s5)C(=O)N43)cnc21 [Compound 1119, (difluoro(2-(((3S,6S,9aS)-3-(((3-methyl-3H-imidazo[4,5-b]pyridin-6-yl)methyl)carbamoyl)-5-oxooctahydro-1H-pyrrolo[1,2-a]azepin-6-yl)carbamoyl)benzo[b]thiophen-5-yl)methyl)phosphonic acid]
3 | 100 to 1000 | 3000 to 30000 |  |  | O=C(N[C@H]1CCC[C@H]2CC[C@@H](C(=O)N3CC(N4CCOCC4)C3)N2C1=O)c1cc2cc(C(F)(F)P(=O)(O)O)ccc2s1 [Compound 34, (difluoro(2-(((3S,6S,9aS)-3-(3-morpholino-azetidine-1-carbonyl)-5-oxooctahydro-1H-pyrrolo[1,2-a]azepin-6-yl)carbamoyl)benzo[b]thiophen-5-yl)methyl) phosphonic acid]
4 |  |  | 1000 to 10000 | 3000 to 30000 | Cn1cc(C2CN(C(=O)[C@@H]3CC[C@@H]4CCC[C@H](NC(=O)c5cc6cc(C(F)P(=O)(O)O)ccc6s5)C(=O)N43)C2)cn1 (stereo partly drawn) [Compound 716, (fluoro(2-(((3S,6S,9aS)-3-(3-(1-methyl-1H-pyrazol-4-yl)azetidine-1-carbonyl)-5-oxooctahydro-1H-pyrrolo[1,2-a]azepin-6-yl)carbamoyl)benzo [b]thiophen-5-yl)methyl) phosphonic acid]
5 |  |  | < 100 | 300 to 3000 | CC[C@@H]1CC[C@H](NC(=O)c2cc3cc([C@H](F)P(=O)(O)O)ccc3s2)C(=O)N2[C@H](CC[C@H]2C(=O)N2CC(c3cnccc3N3CCC3)C2)C1 [Compound 931, ((R)-(2-(((3S,6S,9R,10aR)-3-(3-(4-(azetidin-1-yl)pyridin-3-yl)azetidine-1-carbonyl)-9-ethyl-5-oxodecahydropyrrolo [1,2-a]azocin-6-yl)carbamoyl)benzo [b]thiophen-5-yl)fluoromethyl) phosphonic acid]
6 |  |  | 100 to 1000 | 300 to 3000 | O=C(N[C@H]1CCC[C@H]2CC[C@@H](C(=O)N3CC(n4ncc5ccccc54)C3)N2C1=O)c1cc2cc(C(F)(F)P(=O)(O)O)ccc2s1 [Compound 821, ((2-(((3S,6S,9aS)-3-(3-(1H-indazol-1-yl)azetidine-1-carbonyl)-5-oxooctahydro-1H-pyrrolo[1,2-a]azepin-6-yl)carbamoyl)benzo [b]thiophen-5-yl)difluoromethyl) phosphonic acid]
7 |  |  | 100 to 1000 | ≤ 300 | O=C(N[C@H]1CCCC[C@H]2CC[C@@H](C(=O)N3CCC(c4cccnc4)C3)N2C1=O)c1ccc2ccc(C(F)(F)P(=O)(O)O)cc2c1 (stereo partly drawn) [Compound 218, (difluoro(7-(((3S,6S,10aS)-5-oxo-3-(3-(pyridin-3-yl)pyrrolidine-1-carbonyl)decahydropyrrolo[1,2-a]azocin-6-yl)carbamoyl)naphthalen-2-yl)methyl)phosphonic acid]
8 |  |  | 1000 to 10000 | 3000 to 30000 | CO[C@H]1CC[C@@H](NC(=O)[C@@H]2CC[C@@H]3CCC[C@H](NC(=O)c4cc5cc(C(F)P(=O)(O)O)ccc5s4)C(=O)N32)C1 (stereo partly drawn) [Compound 535, (fluoro(2-(((3S,6S,9aS)-3-(((1R,3S)-3-methoxycyclopentyl)carbamoyl)-5-oxooctahydro-1H-pyrrolo[1,2-a]azepin-6-yl)carbamoyl)benzo[b]thiophen-5-yl)methyl)phosphonic acid]
9 |  |  | < 100 | 300 to 3000 | O=C(N[C@H]1CCC[C@H]2CC[C@@H](C(=O)N3CC(c4cnccc4F)C3)N2C1=O)c1cc2cc([C@H](F)P(=O)(O)O)ccc2s1 (single isomer, unassigned) [Compound 600]
10 |  |  | 100 to 1000 | 3000 to 30000 | O=C(N[C@H]1CCCC[C@H]2CC[C@@H](C(=O)N3CC(c4cncc(-c5ccccc5)c4)C3)N2C1=O)c1cc2cc(C(F)(F)P(=O)(O)O)ccc2s1 [Compound 518, (difluoro(2-(((3S,6S,10aS)-5-oxo-3-(3-(5-phenylpyridin-3-yl)azetidine-1-carbonyl)decahydropyrrolo[1,2-a]azocin-6-yl)carbamoyl)benzo[b]thiophen-5-yl)methyl)phosphonic acid]
11 |  |  | 1000 to 10000 | ≤ 300 | N#C[C@@H]1[C@@H](c2ccccc2)CN(C(=O)[C@@H]2CC[C@@H]3CCCC[C@H](NC(=O)c4ccc5ccc([C@@H](F)P(=O)(O)O)cc5c4)C(=O)N32)C12CC2 (single isomer, unassigned) [Compound 832]
12 |  |  | 100 to 1000 | 3000 to 30000 | COc1nccc(C2CN(C(=O)[C@@H]3CC[C@@H]4CCC[C@H](NC(=O)c5cc6cc([C@@H](F)P(=O)(O)O)ccc6s5)C(=O)N43)C2)c1F (single isomer, unassigned) [Compound 700]
13 |  |  | 100 to 1000 | 3000 to 30000 | CS(=N)(=O)c1cnc(C2CN(C(=O)[C@@H]3CC[C@@H]4CCCC[C@H](NC(=O)c5cc6cc(C(F)(F)P(=O)(O)O)ccc6s5)C(=O)N43)C2)nc1 (stereo partly drawn) [Compound 719, (difluoro(2-(((3S,6S,10aS)-3-(3-(5-(S-methylsulfonimidoyl)pyrimidin-2-yl)azetidine-1-carbonyl)-5-oxodecahydropyrrolo [1,2-a]azocin-6-yl)carbamoyl)benzo [b]thiophen-5-yl)methyl) phosphonic acid]
14 |  |  | 1000 to 10000 | 3000 to 30000 | O=C(N[C@H]1CCCC[C@H]2CC[C@@H](C(=O)N3CC(c4ccccc4)CC34CC4)N2C1=O)c1ccc2ccc(CP(=O)(O)O)nc2c1 (stereo partly drawn) [Compound 571, ((7-(((3S,6S,10aS)-5-oxo-3-(6-phenyl-4-azaspiro[2.4]heptane-4-carbonyl)decahydropyrrolo[1,2-a]azocin-6-yl)carbamoyl)quinolin-2-yl)methyl)phosphonic acid]
15 |  |  | < 100 | 3000 to 30000 | COc1ccncc1C1CN(C(=O)[C@@H]2CC[C@@H]3C[C@H](C(C)C)CC[C@H](NC(=O)c4cc5cc(C(F)P(=O)(O)O)ccc5s4)C(=O)N32)C1 (stereo partly drawn) [Compound 211, (fluoro(2-(((3S,6S,9R,10aR)-9-isopropyl-3-(3-(4-methoxypyridin-3-yl)azetidine-1-carbonyl)-5-oxodecahydropyrrolo[1,2-a]azocin-6-yl)carbamoyl)benzo[b]thiophen-5-yl)methyl)phosphonic acid]
16 |  |  | < 100 | 300 to 3000 | O=C(N[C@H]1CCC[C@H]2CC[C@@H](C(=O)N3CC(c4cnccc4F)C3)N2C1=O)c1cc2cc(C(F)P(=O)(O)O)ccc2s1 (stereo partly drawn) [Compound 664, (fluoro(2-(((3S,6S,9aS)-3-(3-(4-fluoropyridin-3-yl)azetidine-1-carbonyl)-5-oxooctahydro-1H-pyrrolo[1,2-a]azepin-6-yl)carbamoyl)benzo [b]thiophen-5-yl)methyl) phosphonic acid]
17 |  |  | 1000 to 10000 | ≤ 300 | N#C[C@@H]1[C@@H](c2cccnc2)CN(C(=O)[C@@H]2CC[C@@H]3CCC[C@H](NC(=O)c4cc5cc([C@H](F)P(=O)(O)O)ccc5s4)C(=O)N32)C12CC2 (single isomer, unassigned) [Compound 833]
18 |  |  | 100 to 1000 | 3000 to 30000 | CN(C)C(=O)N1CC[C@@H](NC(=O)[C@@H]2CC[C@@H]3CCCC[C@H](NC(=O)c4cc5cc(C(F)P(=O)(O)O)ccc5s4)C(=O)N32)C1 (stereo partly drawn) [Compound 529, ((2-(((3S,6S,10aS)-3-(((R)-1-(dimethylcarbamoyl)pyrrolidin-3-yl)carbamoyl)-5-oxodecahydropyrrolo[1,2-a]azocin-6-yl)carbamoyl)benzo[b]thiophen-5-yl)fluoromethyl)phosphonic acid]
